Data set [1] deals with jack bean urease (Canavalia ensiformis, UniProt P07374). As to the kind of experiment: biochemical. The class given is biochemical. The note with it: for fold stronger inhibitory potential than thiourea: relative to thiourea IC50. On the procedure:
The indophenol method with a little modification was used to determine the urease inhibitory activity of synthetic compounds (5a-i) ([Weatherburn, 1967]; [Yaseen et al., 2016]). Thiourea was used as a standard inhibitor. The assay mixture was comprised of 40 μL of buffer (100 mmol/L urea, 0.01 mol/L K2HPO4, 1 mmol/L EDTA and 0.01 mol/L […], pH 8.2), 10 μL of jack bean urease (5 U/mL) and 10 μL of test compound (1 mM). The reaction mixture was incubated for 30 min with 10 μL urea (1 mM) at 37 °C in 96-well plate. The phenol reagent (40 μL, 1% w/v phenol, 0.005% w/v sodium nitroprusside) and alkali reagent (40 μL, 0.5% w/v NaOH, 0.1% active chloride NaOCl) were added to each well and after 10 min of incubation at 37 °C, the absorbance was measured at 630 nm using a microplate reader (Bio-Tek ELx 800™, Instruments, Inc. United States). The experiments to determine the inhibitory activity of compounds were performed in triplicates. The percentage inhibition was calculated by using the formula given below. Inhibition %=100 – Absorbance of the test compound/Absorbance of the control×100
Compounds showing >50% inhibition against urease were further evaluated for the determination of IC50 values at various concentrations (0.1, 0.3, 1, 3, 10, 30, 100, 300, 1,000 μM) against jack bean urease. The experiments were performed in triplicate. IC50 values were calculated by using the non-linear curve fitting program PRISM 5.0 (GraphPad, San Diego, California, United States) to analyze the results.

The target in data set [2] is urease (Canavalia ensiformis, UniProt P07374). As to the kind of experiment: Kinetics analysis (Michaelis-Menten, Lineweaver-Burk plot). The class given is biochemical, jack bean. The note with it: urea 25-150 mM, inhibitor 0, 1.9, 3.8, 5.7 μM. On the procedure: These experiments helped in the assessment of K m and V max values to predict the mechanism of urease inhibition by plotting reciprocal of reaction rate 1/V (y-axis) against reciprocal of substrate concentrations 1/[S] (x-axis).
The rate of enzyme inhibition was accessed across numerous concentrations of substrate (25, 50, 100, 150 mM) and compound 5g (0, 1.9, 3.8, 5.7 μM) against urease. Afterwards, the data was plotted to obtain the Lineweaver-Burk plot by using GraphPad Prism version 10.2.1.

One may read the IC50 as the concentration at which inhibition is half-maximal. As usually defined, the melting point is the temperature of the solid-liquid transition.

Like-named read-outs stand apart in the source and are kept apart here.

jack bean urease, sequence (P07374 whole entry, looked up): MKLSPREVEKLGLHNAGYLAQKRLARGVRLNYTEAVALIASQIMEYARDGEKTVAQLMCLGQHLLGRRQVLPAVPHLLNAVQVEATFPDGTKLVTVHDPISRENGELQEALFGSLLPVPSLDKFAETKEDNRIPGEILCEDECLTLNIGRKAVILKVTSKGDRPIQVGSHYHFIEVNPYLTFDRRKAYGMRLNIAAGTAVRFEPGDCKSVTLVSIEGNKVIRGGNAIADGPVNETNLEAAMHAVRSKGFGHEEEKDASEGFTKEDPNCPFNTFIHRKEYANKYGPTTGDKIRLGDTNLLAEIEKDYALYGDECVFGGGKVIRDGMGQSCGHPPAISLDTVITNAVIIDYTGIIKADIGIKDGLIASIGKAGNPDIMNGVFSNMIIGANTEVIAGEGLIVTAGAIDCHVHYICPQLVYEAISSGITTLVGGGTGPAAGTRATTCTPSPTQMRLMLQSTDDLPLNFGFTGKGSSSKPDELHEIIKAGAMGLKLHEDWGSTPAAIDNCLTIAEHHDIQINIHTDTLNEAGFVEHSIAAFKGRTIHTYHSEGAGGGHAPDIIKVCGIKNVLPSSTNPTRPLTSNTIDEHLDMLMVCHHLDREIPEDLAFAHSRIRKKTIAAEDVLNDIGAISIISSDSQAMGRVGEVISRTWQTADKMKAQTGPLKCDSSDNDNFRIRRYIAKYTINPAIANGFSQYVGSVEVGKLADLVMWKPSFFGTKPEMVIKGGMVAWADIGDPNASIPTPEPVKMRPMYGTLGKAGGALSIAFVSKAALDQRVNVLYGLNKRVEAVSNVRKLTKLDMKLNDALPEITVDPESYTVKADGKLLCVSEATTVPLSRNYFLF
urease, sequence (P07374 whole entry, looked up): as above

Take `S=C(NCCN1CCOCC1)NN=Cc1cccs1` [Compound 5a, N-(2-morpholinoethyl)-2-(thiophen-2-ylmethylene)hydrazinecarbothioamide]: in data set [1], the IC50 came to 4.94 ± 2.7 µM and the “fold stronger inhibitory potential than thiourea” value was 4.5 fold.

As for `CC(=NNC(=S)NCCN1CCOCC1)c1cccs1` [Compound 5b, N-(2-morpholinoethyl)-2-(1-(thiophen-2-yl)ethylidene)hydrazinecarbothioamide], the melting point fell in the range of 142 to 144 °C. In data set [1], this compound yielded an IC50 of 4.96 ± 3 µM.

Turning to `CC(=NNC(=S)NCCN1CCOCC1)c1cc(C)cs1` [Compound 5c, 2-(1-(4-Methylthiophen-2-yl)ethylidene)-N-(2-morpholinoethyl)hydrazinecarbothioamide], the melting point lay in the range of 112 to 114 °C. Besides, the IC50 in data set [1] turned out to be 4 ± 2.4 µM.

Consider `CC(=NNC(=S)NCCN1CCOCC1)c1ccc(C)s1` [Compound 5d, 2-(1-(5-Methylthiophen-2-yl)ethylidene)-N-(2-morpholinoethyl)hydrazinecarbothioamide], for which the melting point was 156 to 158 °C. In addition, in data set [1], half-maximal inhibition (IC50) was put at 4.6 ± 2.6 µM and the “fold stronger inhibitory potential than thiourea” value was found to be 4.8 fold.

In turn, `CC(=NNC(=S)NCCN1CCOCC1)c1sccc1Cl` [Compound 5e, 2-(1-(3-Chlorothiophen-2-yl)ethylidene)-N-(2-morpholinoethyl)hydrazinecarbothioamide] had a melting point of 116 to 118 °C. Moreover, half-maximal inhibition in data set [1] (IC50) required 4.81 ± 1.5 µM.

Compound `CC(=NNC(=S)NCCN1CCOCC1)c1sccc1Br` [Compound 5f, 2-(1-(3-Bromothiophen-2-yl)ethylidene)-N-(2-morpholinoethyl)hydrazinecarbothioamide] registered a melting point of 124 to 126 °C. For the same compound, in data set [1], inhibition was half-maximal at 5.77 ± 0.7 µM (IC50).

In the case of `CC(=NNC(=S)NCCN1CCOCC1)c1ccc(Cl)s1` [Compound 5g, 2-(1-(5-Chlorothiophen-2-yl)ethylidene)-N-(2-morpholinoethyl)hydrazinecarbothioamide], the melting point fell in the range of 148 to 150 °C. The “mechanism of urease inhibition” value in data set [2] was “uncompetitive inhibition”. Also, it took 3.8 ± 1.9 µM to reach half-maximal inhibition in data set [1] (IC50).

In the case of `CC(=NNC(=S)NCCN1CCOCC1)c1ccc(Br)s1` [Compound 5h, 2-(1-(5-Bromothiophen-2-yl)ethylidene)-N-(2-morpholinoethyl)hydrazinecarbothioamide], the melting point was in the range of 148 to 150 °C. For the same compound, the IC50 in data set [1] was found to be 3.98 ± 2.2 µM.

Compound `CC(=NNC(=S)NCCN1CCOCC1)c1ccc([N+](=O)[O-])s1` [Compound 5i, N-(2-morpholinoethyl)-2-(1-(5-nitrothiophen-2-yl)ethylidene)hydrazinecarbothioamide] had a melting point of 192 to 194 °C. In data set [1], this compound displayed a concentration for half-maximal inhibition (IC50) of 3.9 ± 2.7 µM.

For `NC(N)=S` [Thiourea, reference compound], the half-inhibitory concentration (IC50) in data set [1] (jack bean urease, indophenol method, triplicate, read-out: Urease inhibition IC50 ± SEM) was 22.31 ± 0.03 µM.

Source of the values: PMC11157103, “Exploration of morpholine-thiophene hybrid thiosemicarbazones for the treatment of ureolytic bacterial infections via targeting urease enzyme: Synthesis, biochemical screening and computational analysis” (Frontiers in Chemistry, 2024).
